# In patent US20240238425A1, “HSD17B13 Inhibitors and/or Degraders” (Pfizer Inc., priority 2022, published 2024):
# Counter-ions that a name gives are not always drawn.
# System: HiBiT-HSD17β13 fusion protein (N-terminal HiBiT-tagged HSD17β13 isoform D) in Huh7 HiBiT-HSD17β13 OE cells
# Experiment: Whole-cell Huh7-HSD17B13 HiBiT assay (degrader potency and maximal efficacy, luminescence readout)
# Type: cell-based, human
# Conditions: 24 hour incubation, geometric mean, * = geometric mean for all forms tested (parent and salt forms); for DC50: read-out: Huh7_HIBIT-HSD17β13_DC50 GMean DC50; for Huh7_HIBIT-HSD17β13_DC50 GMean Asymptote Maximum: max. concentration 1 μM
# Outline: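 Luminescence from lytic HiBiT detection tracked residual HiBiT-HSD17β13 (isoform D, N-terminal tag) in a stable Huh7 overexpressing clone after 24 h compound treatment at 37° C, 11 concentrations up to 1 μM final. Percent effect used DMSO (zero) and parental Huh7 (high) wells; four-parameter fit gave 50% degradation; viability checked by CellTiter-Glo.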
SMILES,DC50,Huh7_HIBIT-HSD17β13_DC50 GMean Asymptote Maximum
"Cc1ccc(C(=O)N2CCC3(CCC(c4nc(-c5ccc6cn([C@H]7CC[C@H](CNC(=O)c8cc(F)c(O)c(F)c8F)CC7)nc6c5)no4)CC3)CC2)cc1N1CCC(=O)NC1=O [Example 96, N-({(1r,4r)-4-[6-(5-{3-[3-(2,4-dioxo-1,3-diazinan-1-yl)-4-methylbenzoyl]-3-azaspiro[5.5]undecan-9-yl}-1,2,4-oxadiazol-3-yl)-2H-indazol-2-yl]cyclohexyl}methyl)-2,3,5-trifluoro-4-hydroxybenzamide]",2.7 nM,81%
"Cc1ccc(C(=O)N2CCC3(CCC(N4CCN(c5ccc6cn([C@H]7CC[C@H](CNC(=O)c8cc(F)c(O)c(F)c8F)CC7)nc6c5)CC4)CC3)C2)cc1N1CCC(=O)NC1=O (some centres unmarked) [Example 104, N-({(1r,4r)-4-[6-(4-{2-[3-(2,4-dioxo-1,3-diazinan-1-yl)-4-methylbenzoyl]-2-azaspiro[4.5]decan-8-yl}piperazin-1-yl)-2H-indazol-2-yl]cyclohexyl}methyl)-2,3,5-trifluoro-4-hydroxybenzamide, trifluoroacetate salt]",3.6 nM,78%
"O=C(O)C(F)(F)F.O=C1CCN(c2cnn3cc(CCCN4CCN(c5ncc(-c6ccc7cn(C89CCC(CNC(=O)c%10cc(F)c(O)c(F)c%10F)(CC8)CC9)nc7c6)cn5)CC4)ccc23)C(=O)N1 [Example 105, N-[(4-{6-[2-(4-{3-[3-(2,4-dioxo-1,3-diazinan-1-yl)pyrazolo[1,5-a]pyridin-6-yl]propyl}piperazin-1-yl)pyrimidin-5-yl]-2H-indazol-2-yl}bicyclo[2.2.2]octan-1-yl)methyl]-2,3,5-trifluoro-4-hydroxybenzamide, trifluoroacetate salt]",1.3 nM,76%
"O=C1CCN(c2cc(C(=O)N3CCN(CC4CCN(c5ncc(-c6ccc7cn([C@H]8CC[C@H](CNC(=O)c9cc(F)c(O)c(F)c9F)CC8)nc7c6)cn5)CC4)CC3)ccc2Cl)C(=O)N1 [Example 108, N-{[(1r,4r)-4-(6-{2-[4-({4-[4-chloro-3-(2,4-dioxo-1,3-diazinan-1-yl)benzoyl]piperazin-1-yl}methyl)piperidin-1-yl]pyrimidin-5-yl}-2H-indazol-2-yl)cyclohexyl]methyl}-2,3,5-trifluoro-4-hydroxybenzamide]",1.3 nM,80%
"Cc1ccc(C(=O)N2CCC3(CCC(N4CCN(c5ccc6cn([C@H]7CC[C@H](CNC(=O)c8cc(F)c(O)c(F)c8)CC7)nc6c5)CC4)CC3)CC2)cc1N1CCC(=O)NC1=O [Example 109, N-({(1r,4r)-4-[6-(4-{3-[3-(2,4-dioxo-1,3-diazinan-1-yl)-4-methylbenzoyl]-3-azaspiro[5.5]undecan-9-yl}piperazin-1-yl)-2H-indazol-2-yl]cyclohexyl}methyl)-3,5-difluoro-4-hydroxybenzamide]",1.1 nM,81%
"O=C1CCN(c2cc(C(=O)N3CCC4(CCC(N5CCN(c6ccc7cn([C@H]8CC[C@H](CNC(=O)c9cc(F)c(O)c(F)c9)CC8)nc7c6)CC5)CC4)CC3)ccc2Cl)C(=O)N1 [Example 110, N-({(1r,4r)-4-[6-(4-{3-[4-chloro-3-(2,4-dioxo-1,3-diazinan-1-yl)benzoyl]-3-azaspiro[5.5]undecan-9-yl}piperazin-1-yl)-2H-indazol-2-yl]cyclohexyl}methyl)-3,5-difluoro-4-hydroxybenzamide]",2.9 nM,77%
"Cc1ccc(C(=O)N2CCC3(CCC(n4cc(-c5ccc6cn([C@H]7CC[C@H](CNC(=O)c8cc(F)c(O)c(F)c8F)CC7)nc6c5)cn4)CC3)CC2)cc1N1CCC(=O)NC1=O [Example 112, N-({(1r,4r)-4-[6-(1-{3-[3-(2,4-dioxo-1,3-diazinan-1-yl)-4-methylbenzoyl]-3-azaspiro[5.5]undecan-9-yl}-1H-pyrazol-4-yl)-2H-indazol-2-yl]cyclohexyl}methyl)-2,3,5-trifluoro-4-hydroxybenzamide, formate salt]",0.97 nM,81%

# Now from value to molecule, other results behind:
DC50,SMILES,Huh7_HIBIT-HSD17β13_DC50 GMean Asymptote Maximum
3.2 nM,"Cc1ccc(C(=O)N2CCN(CCOc3ncc(-c4ccc5cn(C67CCC(CNC(=O)c8cc(F)c(O)c(F)c8F)(CC6)CC7)nc5c4)cn3)CC2)cc1N1CCC(=O)NC1=O [Example 91, N-[(4-{6-[2-(2-{4-[3-(2,4-dioxo-1,3-diazinan-1-yl)-4-methylbenzoyl]piperazin-1-yl}ethoxy)pyrimidin-5-yl]-2H-indazol-2-yl}bicyclo[2.2.2]octan-1-yl)methyl]-2,3,5-trifluoro-4-hydroxybenzamide]",73%
2.4 nM,"O=C1CCN(c2cnn3cc(CCCN4CCN(c5ccc6cn([C@]78CC[C@](CNC(=O)c9cc(F)c(O)c(F)c9F)(CC7)CC8)nc6c5)CC4)ccc23)C(=O)N1 [Example 97, N-({4-[6-(4-{3-[3-(2,4-dioxo-1,3-diazinan-1-yl)pyrazolo[1,5-a]pyridin-6-yl]propyl}piperazin-1-yl)-2H-indazol-2-yl]bicyclo[2.2.2]octan-1-yl}methyl)-2,3,5-trifluoro-4-hydroxybenzamide, trifluoroacetate salt]",76%
1.7 nM,"O=C1CCN(c2cnn3cc(CCCN4CCN(c5ncc(-c6ccn7cc([C@]89CC[C@](CNC(=O)c%10cc(F)c(O)c(F)c%10F)(CC8)CC9)nc7c6)cn5)CC4)ccc23)C(=O)N1 [Example 99, N-[(4-{7-[2-(4-{3-[3-(2,4-dioxo-1,3-diazinan-1-yl)pyrazolo[1,5-a]pyridin-6-yl]propyl}piperazin-1-yl)pyrimidin-5-yl]imidazo[1,2-a]pyridin-2-yl}bicyclo[2.2.2]octan-1-yl)methyl]-2,3,5-trifluoro-4-hydroxybenzamide, formate salt]",70%
1.2 nM,"Cc1ccc(C(=O)N2CCC3(CCC(CN4CCN(c5ccc6cn([C@H]7CC[C@H](CNC(=O)c8cc(F)c(O)c(F)c8F)CC7)nc6c5)CC4)CC3)CC2)cc1N1CCC(=O)NC1=O [Example 103, N-{[(1r,4r)-4-{6-[4-({3-[3-(2,4-dioxo-1,3-diazinan-1-yl)-4-methylbenzoyl]-3-azaspiro[5.5]undecan-9-yl}methyl)piperazin-1-yl]-2H-indazol-2-yl}cyclohexyl]methyl}-2,3,5-trifluoro-4-hydroxybenzamide, trifluoroacetate salt]",76%
0.85 nM,"Cc1ccc(C(=O)N2CCC3(CCC(N4CCN(c5ccc6cn([C@H]7CC[C@H](CNC(=O)c8cc(F)c(O)c(F)c8F)CC7)nc6c5)CC4)CC3)CC2)cc1N1CCC(=O)NC1=O [Example 111, N-({(1r,4r)-4-[6-(4-{3-[3-(2,4-dioxo-1,3-diazinan-1-yl)-4-methylbenzoyl]-3-azaspiro[5.5]undecan-9-yl}piperazin-1-yl)-2H-indazol-2-yl]cyclohexyl}methyl)-2,3,5-trifluoro-4-hydroxybenzamide, trifluoroacetate salt]",80%
1.4 nM,"Cc1ccc(C(=O)N2CCC3(CCC(N4CCN(c5ccc6cn([C@H]7CC[C@H](CNC(=O)c8cc(F)c(O)c(F)c8F)CC7)nc6c5)CC4)C3)CC2)cc1N1CCC(=O)NC1=O (some centres unmarked) [Example 113, N-({(1r,4r)-4-[6-(4-{8-[3-(2,4-dioxo-1,3-diazinan-1-yl)-4-methylbenzoyl]-8-azaspiro[4.5]decan-2-yl}piperazin-1-yl)-2H-indazol-2-yl]cyclohexyl}methyl)-2,3,5-trifluoro-4-hydroxybenzamide, formate salt]",79%
2.6 nM,"Cc1ccc(C(=O)N2CCC(CN3CCN(c4ncc(-c5ccc6cn(C78CCC(CNC(=O)c9cc(F)c(O)c(F)c9F)(CC7)CC8)nc6c5)cn4)CC3)CC2)cc1N1CCC(=O)NC1=O [Example 114, N-{[4-(6-{2-[4-({1-[3-(2,4-dioxo-1,3-diazinan-1-yl)-4-methylbenzoyl]piperidin-4-yl}methyl)piperazin-1-yl]pyrimidin-5-yl}-2H-indazol-2-yl)bicyclo[2.2.2]octan-1-yl]methyl}-2,3,5-trifluoro-4-hydroxybenzamide]",77%
0.87 nM,"O=C1CCN(c2cnn3cc(CCCN4Cc5ccc(-c6ccc7cn([C@H]8CC[C@H](CNC(=O)c9cc(F)c(O)c(F)c9F)CC8)nc7c6)cc5C4)ccc23)C(=O)N1 [Example 131, N-({(1r,4r)-4-[6-(2-{3-[3-(2,4-dioxo-1,3-diazinan-1-yl)pyrazolo[1,5-a]pyridin-6-yl]propyl}-2,3-dihydro-1H-isoindol-5-yl)-2H-indazol-2-yl]cyclohexyl}methyl)-2,3,5-trifluoro-4-hydroxybenzamide, trifluoroacetate salt]",78%
2.1 nM,"Cn1nc(N2CCC(=O)NC2=O)c2ccc(CCCN3CCN(c4nccc(-c5nc([C@]67CC[C@](CNC(=O)c8cc(F)c(O)c(F)c8F)(CC6)CC7)no5)n4)CC3)cc21 [Example 133, N-[(4-{5-[2-(4-{3-[3-(2,4-dioxo-1,3-diazinan-1-yl)-1-methyl-1H-indazol-6-yl]propyl}piperazin-1-yl)pyrimidin-4-yl]-1,2,4-oxadiazol-3-yl}bicyclo[2.2.2]octan-1-yl)methyl]-2,3,5-trifluoro-4-hydroxybenzamide, trifluoroacetate salt]",73%
